Experimental data as given in patent US20140031388A1, “AKT INACTIVATION BY TOCOPHERYL DERIVATIVES” (priority 2012, published 2014).

What was measured:
[1] = test system: PDK-1 membrane localization; test: Immunofluorescence, membrane localization of PDK-1 at higher concentrations; type: cell-based; details: 6 hours of exposure
Procedure: Cells were stained for endogenous PH domain-containing proteins (Akt, PHLPP, PDK-1, ILK, BTK) by incubation with specific antibodies (1:100), followed by incubation with the Alexa Fluor 555-conjugated goat anti-rabbit or Alexa Fluor 488-conjugated goat anti-mouse IgG (1:200) at room temperature for 2 hours. Both primary and secondary antibodies were diluted in incubation buffer containing 0.1% Triton X-100 and 0.2% bovine serum albumin in PBS. The cells were washed in PBS after each step and mounted using […] mounting medium supplemented with DAPI (Vector Laboratories Inc., Burlingame, Calif.). The slides were allowed to set for at least 4 hours before confocal images were acquired using a Zeiss LSM 510 inverted confocal laser scanning microscope operated with Zeiss LSM 510 software. Image analysis was performed using ImageJ (NIH) software.

[2] = test system: PC-3-luc xenograft tumors; test: PC-3-luc subcutaneous xenograft in athymic nude mice; type: in vivo; details: 50 mg/kg daily intraperitoneal, 21 days
Procedure: (§1) Male athymic nude mice (Hsd:Athymic Nude-Foxn1^nu/nu, 5-7 weeks of age) were purchased from Harlan Laboratories and group-housed under conditions of constant photoperiod (12 hours light: 12 hours dark) with ad libitum access to sterilized food and water. Ectopic tumors were established in athymic nude mice by subcutaneous injection of 1×10^6 PC-3-luc or 2×10^6 LNCaP-abl cells in a total volume of 0.1 mL serum-free medium containing 50% Matrigel (BD Biosciences). The establishment and growth of tumors were monitored weekly by measurement with calipers (tumor volume=width^2×length×0.52) and bioluminescence (PC-3-luc) using the IVIS™ imaging system (Xenogen Corporation, Alameda, Calif.). For bioluminescent imaging, mice anesthetized with isoflurane were imaged at 15, 20 and 25 min after intraperitoneal administration of firefly luciferin (150 mg/kg; Caliper Life Sciences) to capture maximal luminescence. Data acquisition and analysis were achieved using the Living Image® software (Xenogen). […] Body weights and tumor burdens were measured weekly. At the study endpoint, mice were euthanized, and blood was collected by cardiac puncture from all mice and submitted to The Ohio State University Comparative Pathology and Mouse Phenotyping Shared Resource for determination of complete blood counts and serum chemistry.

[3] = test system: LNCaP-abl xenograft tumors; test: LNCaP-abl subcutaneous xenograft in athymic nude mice; type: in vivo
Procedure: as §1

[4] = Toxicologic evaluation in PC-3-luc tumor-bearing mice; type: in vivo
Procedure: as §1

[5] = 50 mg/kg daily intraperitoneal, 21 days
[6] = values within the normal ranges for mice

## Cc1c(O)cc2c(c1C)O[C@](C)(CCCC(C)C)CC2 [γ-VE5, (R)-2,7,8-trimethyl-2-(4-methylpentyl)-chroman-6-ol]
[1]; 25 μM
  membrane-associated PDK-1, share of total immunofluorescence signal: approximately 50%
[1]; 35 μM
  membrane-associated PDK-1, share of total immunofluorescence signal: greater than 90%
[2]; P<0.05
  PC-3-luc tumor growth relative to vehicle-treated controls (bioluminescence): inhibited PC-3-luc tumor growth
[2]; PC-3-luc tumors
  intratumoral phosphorylation of Akt, MDM2 and IKKα: suppressed phosphorylation of Akt at Ser^473 without disrupting that at Thr^308
[3]; [5]
  LNCaP-abl tumor growth relative to vehicle-treated controls: significantly inhibited tumor growth
[3]; LNCaP-abl tumors, relative to vehicle-treated controls
  intratumoral phosphorylation of Akt at Ser473, MDM2 and IKKα: reduced phosphorylation
[4]; [5]
  gross pathology findings at necropsy: abdominal adhesions and variable amounts of clear fluid within the abdomen
[4]; 50 mg/kg daily intraperitoneal, 21 days, vehicle −0.2 grams
  change of mean body weight over the treatment period: −0.7 grams
[4]; 50 mg/kg daily intraperitoneal, 21 days, vehicle −0.7%
  change of mean body weight over the treatment period: −2.3%
[4]; [6]
  hematological findings relative to controls: reductions in hematocrit, red blood cell numbers and hemoglobin concentration
  serum chemistry findings: increase in aspartate aminotransferase and a decrease in serum albumin concentrations
